According to patent US20260215425A1, “NITRIFICATION INHIBITORS” (The University of Melbourne, priority 2022, published 2026):

What was measured:
N. europaea [1] = assay: standard nitrification inhibition assay (NO2- production, Griess); assay type: cell-based, Nitrosomonas europaea; conditions: [NH4+]=3 mM, [inhibitor]=0.3 mM (10 mol %), pH 7.5, 30° C., 60 min
Description: (§1) Cells of N. multiformis and N. europaea were cultivated to the mid-exponential growth phase (OD600=0.1, [NO2^−] approximately 800 μM) and harvested by filtration onto 0.2 μm membrane filters (Mixed Cellulose Ester (MCE), Sigma Aldrich). The cells were washed with 2×100 mL of 0.1 M sodium phosphate buffer (NaPB), containing 0.2 mM MgSO4 at pH 7.5. The cells were washed from the filter paper by transferring it to a sterile 50 mL tube and resuspending in NaPB (15 mL), followed by 5 s of vortexing (Ratek, Australia) and 3 s of sonication (Vevor, Australia). […] Experiments were performed in triplicate.
(§2) In a deep 96-well plate (2 mL capacity), 980 μL of the bacterial inoculum (OD600=0.03) was added to the inhibitor (10 μL, 30 mmol L^−1 in Milli-Q water), the solutions were mixed thoroughly and pre-incubated in the dark for 5 minutes at 100 rpm and 30° C. (NH4)2SO4 (10 μL, 150 mM, from a prepared sterile solution containing 19.8 g L^−1 (NH4)2SO4 in Milli-Q water) was then added using a multi-channel pipette. The plate was covered with a with an O2 permeable membrane to ensure aeration (Breathe-Easy® sealing membrane, Sigma Aldrich) and incubated in a temperature-regulated rotary incubator (Ratek, Australia) in the dark for 60 minutes at 30° C. and 100 rpm. An aliquot of the reaction solution ([…]) was transferred to a 96-well spectrophotometric plate to which 50 µL of Griess reagent was added. The colour was allowed to develop for 15 minutes at room temperature, and the absorbance was measured at 540 nm. Each assay was accompanied by control treatments to determine the 0% and 100% NO2 signal. The percentage inhibition was calculated according to eqn. 1 from the NO2 production of the cells in NaPB (i) without additive (‘untreated cells’: 0% signal), (ii) with [NH4^+]=3 mM (‘uninhibited’ cells: 100% signal) and (iii) with [NH4^+]=3 mM and [inhibitor]=0.3 mM and 0.03 mM (10 mol % and 1 mol % of [NH4^+], ‘inhibited cells’). Experiments were performed in triplicate.

N. multiformis = assay: as above; assay type: cell-based, Nitrosospira multiformis; conditions: [NH4+]=3 mM, [inhibitor]=0.3 mM (10 mol %), pH 7.5, 30° C., 60 min
Description: as §1, §2

[2] = system: hydroxylamine oxireductase (HOA); assay: standard nitrification inhibition assay with NH2OH as substrate; assay type: cell-based, N. multiformis; conditions: substrate NH2OH 3 mM, [inhibitor]=0.3 mM, pH 7.5, 30° C., 60 min
N. europaea [3] = assay: acute toxicity test (LIVE/DEAD stain); assay type: cell-based; conditions: [4-MPT]=1.5 mM (50 mol % of [NH4+]), [NH4+]=3 mM, 12 h
Description: Cells were harvested using the ‘standard cell harvesting protocol’. The bacteria solution was adjusted to an OD600=0.8 (100 μg/L protein). The solution was divided into 1 mL aliquots and transferred to a 24-well tissue culture plate (Greiner Cellstar®, polystyrene Tissue Culture treated). Each well contained 980 μL of bacterial solution, 10 μL of a 150 mM aqueous (NH4)2SO4 solution and 10 μL of a 150 mM inhibitor solution. […] After incubation, cells were transferred into a centrifuge tube and sedimented at 10,000 rpm for 10 minutes. The supernatant was discarded, and cells were re-suspended in 1 mL NaPB. A 5 μL aliquot was transferred into a 96-well plate and the bacterial stain (LIVE/DEAD™ BacLight™ Bacterial Viability Kit for microscopy, ThermoFisher Scientific) was added following the manufacturer's guideline. 10 μL of the solution was transferred onto a microscopic slide (Fisher Scientific, Australia, microscope slides 7.6 cm×2.5 cm (L×W), thickness 1-1.2 mm). Ten images were taken per treatment with a fluorescence microscope (Leica DM6000, Germany) using the red filter setting (excitation:
575/30 nm (dichromatic) DC: 600; emission: 635/40 nm) and green channel using filter setting (excitation: 500/20 nm DC: 515; emission: 535/30 nm) to detect dead and live cells respectively. The percentage of live and dead cells was calculated via eqns.

soil A = assay: soil incubation, NH4+ and NO3- in soil A; conditions: 21 days
Description: Soils used in these studies were air-dried, ground and sieved (2 mm) prior to use. Soil microcosm incubations were carried out in 250 mL polypropylene specimen containers (Sarstedt, Germany), containing 20 g oven dry-weight equivalent of soil. Microcosms were treated with half the volume of water required to meet the desired water-filled pore space (WFPS %) of 60% and pre-incubated at 25° C. for seven days to revive soil microbial activity. Following pre-incubation, the remaining volume to reach the WFPS % was applied as one of the treatment solutions: (1) fertiliser ((NH4)2SO4,) 100 mg kg^−1, (2) fertiliser+0.5 mol % 4-MPT, (3) fertiliser+2.5 mol % 4-MPT, (4) fertiliser+5 mol % 4-MPT or (5) fertiliser+5 mol % compound 1, with three replicates of each treatment per time interval (n=3). Throughout the incubation period soil microcosms were kept aerated by removing the lid for 10 minutes every 2-3 days to allow gas exchange, and moisture levels were replenished via addition of Milli-Q water as required. At the end of the desired incubation period (i.e., after 0, 3, 7, 14, and 21 days, respectively), soil microcosms were removed and destructively sampled by treating with 2 M aqueous potassium chloride solution (KCl, 100 mL) and shaking for 1 h. Soil-KCl solutions were filtered (Whatman No. 42), and the filtrates were stored at −20° C. until the conclusion of the experiment, when all KCl extracts were analysed for the concentration of soil mineral nitrogen from ammonium (NH4^+—N) and from nitrate (NO3^−—N; the conversion of NO2 to NO3^− in soils is very rapid) after appropriate dilutions using Segmented Flow Analysis (San++, Skalar, Breda, The Netherlands). Results are reported as the mean of three replicates, errors reported are standard errors of the mean. Errors associated with raw data were carried through calculations using standard error propagation protocols.
To determine the nitrification inhibitory effect of 4-MPT in vivo, soil incubations were performed by measuring concentration-time profiles for NH4^+ and NO3^− in an acidic Australian soil (soil A, pH=5.9) over 21 days. 4-MPT was tested at three different concentrations (0.5 mol %, 2.5 mol % and 5 mol % of applied fertiliser-N) and compared with the alkyl-substituted compound 1 (5 mol % of applied fertiliser-N) to confirm the requirement of the N-propargyl substitutent for inhibitory activity (FIG. 5).

C#CCn1cc(C)nn1 [Compound 4-MPT, 4-Methyl-1-(prop-2-yn-1yl)-1H-1,2,3-triazole] was tested, and the “% Inhibition NE” value (N. europaea [1]) was 77%, the “% Inhibition NM” value (N. multiformis) was 75% and the “% Inhibition NM” value [2] was 33 ± 4%. For the same compound, the “% Dead” value (N. europaea [3]) was 25 ± 8%, the “% Live” value (N. europaea [3]) was 75 ± 8% and the “NH4+ loss / conversion in soil” value (soil A; 0.5 mol % of applied fertiliser-N) was “noticeably delayed NH4^+ loss within the first 15 days”. The “NH4+ loss / conversion in soil” value (soil A; 2.5 mol % of applied fertiliser-N) was “quantitatively suppress NH4^+ conversion” and the “NH4+ loss / conversion in soil” value (soil A; 5 mol % of applied fertiliser-N) was “quantitatively suppress NH4^+ conversion”.
